Several values for one entry are separate records, joined by “and”; a condition that tells them apart may be missing. Equal entries are not always repeated.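 Assay format: 96-well plates, 48-hour exposure. Here, GI50 denotes the concentration required for 50% inhibition of growth. Definition used: TGI = concentration required for complete inhibition of growth.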

In the assay the test system is MDA-MB-468 breast. As to the kind of experiment: growth of human tumour cells (NCI), 48 h.
Regarding `Fc1cccc(COc2ccc(Nc3ncnc4cc(-c5ccc[nH]5)sc34)cc2Cl)c1`, the GI50 is 0.0446 µM and the TGI amounted to 0.306 µM.

Regarding `CC(C)(C)c1ccc(S(=O)(=O)N[C@H]2CC[C@H]3[C@@H]4CCc5cc(OS(=O)(=O)O)ccc5[C@H]4CC[C@]23C)cc1`, the GI50 was 2.05 µM and the TGI stood at 5.59 µM.

Take `CC[C@H](CC#N)OC(=O)N[C@@H](C)c1cccc(NC(=O)Nc2ccc(-c3cnco3)c(OC)c2)c1`: the GI50 is 0.531 µM and the TGI is 18.2 µM.

As for `CC1OC2CC(=O)OC2C2=C1C(=O)c1c(O)c3c(c(O)c1C2=O)C1CC(O)C3(O)C(C)O1` (stereo not given), the GI50 is 0.229 µM and the TGI worked out at 0.618 µM.

Consider `Oc1ccc(CCCCCCc2ccc(O)cc2)cc1`, for which the GI50 was 12.7 µM and the TGI was determined as 32.9 µM.

Turning to `Cn1ccnc1C(=O)/C=C/c1ccc(CC(=O)Nc2ccccc2)cc1`, the GI50 was 1.71 µM and the TGI worked out at 7.11 µM.

As for `O=C1/C(=C/c2ccc(O)cc2)COc2ccc(-c3ccccc3)cc21`, the GI50 is 3.32 µM and the TGI stood at 11.4 µM.

For `ClCc1c(Cl)c(Cl)c(Cl)c(CCl)c1Cl`, the GI50 was 1.57 µM and the TGI is 3.11 µM.

As for `CN(C)C(=S)N=Nc1c(O)[nH]c2ccccc12`, the GI50 was 0.482 µM and the TGI turned out to be 3.46 µM.

Regarding `COc1ccc(-c2cn(-c3ccccc3)c(-c3ccccc3)n2)cc1OC`, the GI50 was 4.9 µM and the TGI came out at 21.9 µM.

Take `CCCCN(Cc1ccc(F)cc1)c1ccc(CO)c(Cl)c1`: the GI50 was 0.167 µM and the TGI amounted to 0.449 µM.

On to `CCCCCCCCCCCC[n+]1ccc(CCCCCCCCC)cc1`, for which the GI50 was 0.253 µM and the TGI was 0.833 µM.

For the compound `CNC(=O)c1cc(N2CCc3cc(NC(=O)Nc4ccc(N5CCOCC5)c(C(F)(F)F)c4)ccc32)ccn1`, the GI50 is 5.22 µM and the TGI was more than 33.3 µM.

Turning to `COC(=O)CNC(=O)[C@@H](OC)[C@@H]1Cc2cc3cc(OC4CC(OC5CC(O)C(O)C(C)O5)C(O)C(C)O4)c(C)c(O)c3c(O)c2C(=O)[C@H]1OC1CC(OC2CC(OC3CC(C)(O)C(O)C(C)O3)C(O)C(C)O2)C(O)C(C)O1` (stereo not given in full), the GI50 was 0.162 µM and the TGI turned out to be 1.31 µM.

As to `CSc1ccc(/C=C2\N=C(c3ccccc3)N(c3nc4ccc(Sc5ccccc5)cc4[nH]3)C2=O)cc1`, the GI50 was 4.44 µM and the TGI was found to be 25.8 µM.

Regarding `CC(=O)Oc1ccccc1C(=O)Nc1cc(C(C)C)ccc1C`, the GI50 is 2.49 µM and the TGI was 8.38 µM.

For the compound `CC(=C(c1ccc(OCCN(C)C)cc1)c1ccc(OCCN(C)C)cc1)c1ccc(Cl)cc1`, the GI50 is 0.827 µM and the TGI worked out at 3.24 µM.

In the case of `C=C1CC[C@@H]2[C@](C)(COC(C)=O)[C@H](OC(C)=O)CC[C@@]2(C)[C@@H]1CC(Nc1ccc(S(=O)(=O)Nc2nccc(C)n2)cc1)C1=CCOC1=O` (stereo not given in full), the GI50 was 1.99 µM and the TGI came to 4.31 µM.

Turning to `CN(CCOc1ccc(C#N)cc1)CCOc1ccc(C#N)cc1`, the GI50 is 27.5 µM and the TGI was more than 100 µM.

For the compound `O=C(CCl)N1c2ccccc2Sc2c1ccc1ccccc21`, the GI50 is 2.09 µM and the TGI came to 3.95 µM.

As for `c1cnc2[nH]cc(-c3csc(-c4cn(CCCCN5CCOCC5)c5ccccc45)n3)c2c1`, the GI50 was 2.07 µM and the TGI stood at 3.99 µM.

On to `OCc1ccc(-c2nn(Cc3ccccc3)c3ccccc23)o1`, for which the GI50 was 0.11 µM and the TGI is 0.287 µM.

As for `Nc1cc(N)c(N)cc1N`, the GI50 was 1.8 µM and the TGI is 4.48 µM.

On to `Cc1cc(C(C#N)c2ccc(Cl)cc2)c(Cl)cc1NC(=O)c1cc(I)cc(I)c1O` (stereo not given), for which the GI50 is 4.31 µM and 15.3 µM; the TGI was 18 µM and 30 µM.

As to `C#CC[C@@H]1C[C@]2(C)[C@H]3CC=C4[C@H]5CC(C)(C)CC[C@]5(C(=O)NCCCCN)CC[C@@]4(C)[C@]3(C)CC[C@H]2C(C)(C)[C@H]1OC(C)=O`, the GI50 was 1.71 µM and the TGI turned out to be 3.27 µM.

As for `CC(CNC(Cc1ccccc1)c1ccccc1)NC(Cc1ccccc1)c1ccccc1` (stereo not given), the GI50 is 1.74 µM and the TGI was 3.67 µM.

Consider `COc1cc(Nc2nc(N[C@H]3CCCC[C@@H]3N)nc3cc[nH]c(=O)c23)cc(OC)c1`, for which the GI50 was 0.26 µM and the TGI was 0.854 µM.

For the compound `C[C@@H]1COCCN1c1cc(C2(S(C)(=N)=O)CC2)nc(-c2ccnc3[nH]ccc23)n1` (stereo not given in full), the GI50 was 3.92 µM and the TGI worked out at 25 µM.

With `c1n[nH]cc1-c1nc2ccc3[nH]ncc3c2c2c1CCCC2`, the GI50 is 1.36 µM and the TGI is 3.6 µM.

In the case of `CCN(Cc1ccccc1OC)c1ccc(CO)c(Cl)c1`, the GI50 was 0.0372 µM and the TGI is 0.214 µM.

Consider `C[C@@H]1CN(CC(=O)N2CC(C)(C)c3nc(CO)c(Cc4ccc(F)cc4)cc32)[C@@H](CN2CCOC[C@H]2C)CN1`, for which the GI50 was 10.9 µM and the TGI stood at 27.9 µM.

For the compound `C[C@H]1[C@H](C)CC[C@]2(C(=O)O)CC[C@]3(C)C(=CC[C@@H]4[C@@]5(C)C/C(=C/c6cccnc6)[C@H](O)C(C)(C)[C@@H]5CC[C@]43C)[C@H]12`, the GI50 was 19.8 µM and the TGI was 80.1 µM.

Take `Cc1nc2sc(C(=O)Nc3ccccc3)c(N)c2cc1C(=O)/C=C/c1ccccc1`: the GI50 was 1.73 µM and the TGI turned out to be 3.82 µM.

As for `COc1cc[nH]c1/C=C1\C(=O)Nc2ccc(F)c(I)c21`, the GI50 was more than 5.39 µM and the TGI is more than 25 µM.

On to `Fc1ccc2[nH]c3c(NCCCN4CCOCC4)ncnc3c2c1`, for which the GI50 is 20.4 µM and the TGI was more than 100 µM.

As for `CN(C)c1ccc(/C=C/C=C(/C#N)c2ccccc2)cc1`, the GI50 was 17.5 µM and the TGI was determined as 67.7 µM.

For `C=C1C(=O)O[C@H]2[C@H]1CC/C(COC(=O)N1CCC[C@H]1C(=O)Nc1ccc(OC)c(C(N)=O)c1O)=C\CC[C@@]1(C)O[C@@H]21`, the GI50 was 1.06 µM and the TGI is 3.46 µM.

On to `CC(=O)O[C@@H]1CC2C(C)(C)CCCC2(C)C2=C1C(=O)C(C(C)C)=CC2=O` (stereo not given in full), for which the GI50 is 1.54 µM and the TGI is 3.81 µM.

For the compound `CC(=O)OCC1OC(n2ccc(=O)[nH]c2=O)C(OC(C)=O)C1OC(C)=O` (stereo not given), the GI50 was more than 100 µM and the TGI was more than 100 µM.

As to `CN(C)c1ccc2cc(-c3ccccc3F)c(N)nc2c1`, the GI50 is 0.542 µM and the TGI worked out at 12.2 µM.
